pIC50: −log10 of the molar value.
Tests used:
hPD-1/hPD-L1 = molecular target: T1, hPD-1/hPD-L1 (Homo sapiens, UniProt Q9NZQ7); test: PD-1/PD-L1 binding assay kit (CISBIO), HTRF assay of PD-1/PD-L1 protein-protein interaction; settings: for inhibitory activity of PD-1/PD-L1 protein-protein interaction compared with BMS-202: HTRF, comparison with BMS-202
T1 construct: purchased CISBIO
Procedure: Experimental objective: the activity of the compounds of formula (I) to inhibit the PD-1/PD-L1 interaction was tested by using a PD-1/PD-L1 binding assay kit (CISBIO).
Experimental principle: HTRF (Homogeneous Time-Resolved Fluorescence) is a technique used to detect substances to be tested in pure liquid phase systems. It primarily utilizes energy transfer of two fluorescent groups, which are divided into an energy donor europium (Eu^+) and an energy acceptor. When the donor is externally excited (e.g., a flash lamp or laser), the energy can be resonantly transferred to the acceptor if the donor is close enough to the acceptor, and the acceptor is excited at a specific wavelength. By using the HTRF technology, the assay enables simple and rapid characterization of compounds and antibody blockers in a high-throughput format. By using anti-Tag1 labeled with Eu^+ (Europium) (the HTRF energy donor) and anti-Tag2 labeled with XL665 (the HTRF energy acceptor), the interaction between PD-L1 and PD-1 can be detected. PD-L1 protein and PD-1 protein are labeled with Tag1 and Tag2, respectively, and Eu^+ and XL665 bind to PD-L1 and PD-1, respectively, through antibodies to form complexes. […] This specific signal is directly proportional to the degree of PD1/PD-L1 interaction.
Experimental materials: kit: PD-1/PD-L1 binding assay kits purchased from CISBIO; and 96-well plate: purchased from CISBIO.
Test instrument: Perkin Elmer, model: EnVision.
Test compounds: the compounds in formula (I).
Experimental procedure: PD-1/PD-L1 binding assay kits were used. […] The plates were sealed by using microplate sealers, centrifuging was performed at 1000 rpm for 1 min, and incubation was performed at room temperature for 15 min. The Anti-Tag-Eu^3+ and Anti-tag-XL665 which were diluted with Buffer were then mixed in equal volumes, then 10 µL of the mixed solution was added to each well, the sealed plates were centrifuged at 1000 rpm for 1 min, and incubation was performed at room temperature for 2 h. […] IC50 of the compounds was calculated by using Graphpad.

[1] = Acute toxicity test, single oral gavage; assay type: in vivo; settings: both sexes, rat, in vivo, po, SD rats, read-out: maximum tolerated dose (MTD)
Procedure: • Animal species and number: SD rats; 6 rats in each group (half male and half female); Mode of administration: oral gavage; […]; • Administration frequency: administration once.
Side-cage observation on the day of administration (D1): frequency and time of observation: side-cage observation of acute toxicity reactions was performed for 4 h after administration of animals in each group, and detailed clinical observations were performed on animals with apparent abnormal manifestations. Mortality, morbidity, respiration, secretion, feces, and diet, water drinking, etc. were observed, and changes in body weight of rats during administration were recorded. Detailed clinical observations include, but are not limited to, behavioral activities, skin, hair, eyes, ears, noses, abdomens, external genitalia, anuses, limbs, feet, and breathing. The animals in each group were euthanized at the end of the observation period, and all animals were dissected and gross observed.

T1 sequence (Q9NZQ7 19-238 limits assumed): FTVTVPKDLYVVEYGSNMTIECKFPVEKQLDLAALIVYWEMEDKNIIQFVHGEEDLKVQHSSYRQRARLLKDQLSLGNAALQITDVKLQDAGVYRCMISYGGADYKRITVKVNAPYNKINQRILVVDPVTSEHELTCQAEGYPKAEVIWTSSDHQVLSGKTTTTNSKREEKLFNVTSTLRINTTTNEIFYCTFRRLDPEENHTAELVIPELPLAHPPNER

## Cc1c(-c2ccc3c(c2)CN(CCC(=O)O)C3=O)cccc1-c1ccccc1F [I-A-5, 3-(5-(2'-Fluoro-2-methyl-[1,1'-biphenyl]-3-yl)-1-oxoisoindolin-2-yl)propanoic acid]
hPD-1/hPD-L1
  pIC50: < 6.00

## OCCN1CCc2nc(OCc3cccc(-c4ccccc4Cl)c3F)ccc2C1 [I-D-24, 2-(2-((2'-chloro-2-fluoro-[1,1'-biphenyl]-3-yl)methoxy)-7,8-dihydro-1,6-naphthyridin-6(5H)-yl)ethan-1-ol]
hPD-1/hPD-L1
  pIC50: 6.00 to 7.15
[1]
  MTD: ≥ 2000 mg/kg

## Cc1c(-c2ccc3c(c2)CN(CC(=O)O)C3=O)cccc1-c1ccccc1F [I-A-4, 2-(5-(2'-Fluoro-2-methyl-[1,1'-biphenyl]-3-yl)-1-oxoisoindolin-2-yl)acetic acid]
hPD-1/hPD-L1
  pIC50: < 6.00

## Cc1c(-c2ccc3c(c2)CN(C(C)C(=O)O)C3=O)cccc1-c1ccccc1F (stereo not shown) [I-A-6, 2-(5-(2'-Fluoro-2-methyl-[1,1'-biphenyl]-3-yl)-1-oxoisoindolin-2-yl)propanoic acid]
hPD-1/hPD-L1
  pIC50: < 6.00

## OCCN1CCc2nc(OCc3cccc(-c4ccccc4Cl)c3Cl)ccc2C1 [I-D-20, 2-(2-((2,2'-dichloro-[1,1'-biphenyl]-3-yl)methoxy)-7,8-dihydro-1,6-naphthyridin-6(5H)-yl)ethan-1-ol]
hPD-1/hPD-L1
  pIC50: 6.00 to 7.15

## O=C(O)CN1CCc2nc(OCc3cccc(-c4ccccc4F)c3)ccc2C1 [I-D-30, 2-(2-((2'-fluoro-[1,1'-biphenyl]-3-yl)methoxy)-7,8-dihydro-1,6-naphthyridin-6(5H)-yl)acetic acid]
hPD-1/hPD-L1
  pIC50: 7.87
  inhibitory activity of PD-1/PD-L1 protein-protein interaction compared with BMS-202: superior to that of the compound BMS-202

## Cc1c(-c2ccc3c(c2)CN(CCO)C3)cccc1-c1ccccc1F [I-A-9, 2-(5-(2'-Fluoro-2-methyl-[1,1'-biphenyl]-3-yl)isoindolin-2-yl)ethan-1-ol]
hPD-1/hPD-L1
  pIC50: 7.96
  inhibitory activity of PD-1/PD-L1 protein-protein interaction compared with BMS-202: superior to that of the compound BMS-202

## Cc1c(COc2ccc3c(n2)CCN(CCO)C3)cccc1-c1ccccc1Cl [I-D-16, 2-(2-((2'-chloro-2-methyl-[1,1'-biphenyl]-3-yl)methoxy)-7,8-dihydro-1,6-naphthyridin-6(5H)-yl)ethan-1-ol]
hPD-1/hPD-L1
  pIC50: 6.00 to 7.15

## OCCN1CCc2nc(OCc3cccc(-c4ccccc4)c3Cl)ccc2C1 [I-D-21, 2-(2-((2-chloro-[1,1'-biphenyl]-3-yl)methoxy)-7,8-dihydro-1,6-naphthyridin-6(5H)-yl)ethan-1-ol]
hPD-1/hPD-L1
  pIC50: 7.51
  inhibitory activity of PD-1/PD-L1 protein-protein interaction compared with BMS-202: superior to that of the compound BMS-202

## Cc1c(COc2ccc3c(n2)CCN(CC(=O)O)C3)cccc1-c1ccccc1F [I-D-13, 2-(2-((2'-fluoro-2-methyl-[1,1'-biphenyl]-3-yl)methoxy)-7,8-dihydro-1,6-naphthyridin-6(5H)-yl)acetic acid]
hPD-1/hPD-L1
  pIC50: 7.64
  inhibitory activity of PD-1/PD-L1 protein-protein interaction compared with BMS-202: superior to that of the compound BMS-202

## Cc1c(-c2ccc3c(n2)CCN(CCO)C3)cccc1-c1ccccc1F [I-B-3, 2-(2-(2'-Fluoro-2-methyl-[1,1'-biphenyl]-3-yl)-7,8-dihydro-1,6-naphthyridin-6(5H)-yl)ethan-1-ol]
hPD-1/hPD-L1
  pIC50: 6.00 to 7.15

## O=CCN1CCc2nc(OCc3cccc(-c4ccccc4F)c3Cl)ccc2C1 [I-D-28, 2-(2-((2-chloro-2'-fluoro-[1,1'-biphenyl]-3-yl)methoxy)-7,8-dihydro-1,6-naphthyridin-6(5H)-yl)acetaldehyde]
hPD-1/hPD-L1
  pIC50: 7.62
  inhibitory activity of PD-1/PD-L1 protein-protein interaction compared with BMS-202: superior to that of the compound BMS-202

## OCCN1CCc2nc(OCc3cccc(-c4ccccc4F)c3F)ccc2C1 [I-D-22, 2-(2-((2,2'-difluoro-[1,1'-biphenyl]-3-yl)methoxy)-7,8-dihydro-1,6-naphthyridin-6(5H)-yl)ethan-1-ol]
hPD-1/hPD-L1
  pIC50: 7.98
  inhibitory activity of PD-1/PD-L1 protein-protein interaction compared with BMS-202: superior to that of the compound BMS-202

## Cc1ccccc1-c1cccc(COc2ccc3c(n2)CCN(CCO)C3)c1C [I-D-15, 2-(2-((2,2'-dimethyl-[1,1'-biphenyl]-3-yl)methoxy)-7,8-dihydro-1,6-naphthyridin-6(5H)-yl)ethan-1-ol]
hPD-1/hPD-L1
  pIC50: 6.00 to 7.15

## Cc1ccccc1-c1cccc(COc2ccc3c(n2)CCN(CCO)C3)c1Cl [I-D-19, 2-(2-((2-chloro-2'-methyl-[1,1'-biphenyl]-3-yl)methoxy)-7,8-dihydro-1,6-naphthyridin-6(5H)-yl)ethan-1-ol]
hPD-1/hPD-L1
  pIC50: 7.70
  inhibitory activity of PD-1/PD-L1 protein-protein interaction compared with BMS-202: superior to that of the compound BMS-202

## Cc1c(COc2ccc3c(n2)CCN(CCO)C3)cccc1-c1ccccc1F [I-D-14, 2-(2-((2'-fluoro-2-methyl-[1,1'-biphenyl]-3-yl)methoxy)-7,8-dihydro-1,6-naphthyridin-6(5H)-yl)ethan-1-ol]
hPD-1/hPD-L1
  pIC50: 7.80
  inhibitory activity of PD-1/PD-L1 protein-protein interaction compared with BMS-202: superior to that of the compound BMS-202

## Cc1c(-c2ccc3c(c2)CN(CCO)C3=O)cccc1-c1ccccc1F [I-A-7, 5-(2'-Fluoro-2-methyl-[1,1'-biphenyl]-3-yl)-2-(2-hydroxyethyl)isoindo 1-1-one]
hPD-1/hPD-L1
  pIC50: 6.00 to 7.15

## Cc1ccccc1-c1cccc(COc2ccc3c(n2)CCN(CCO)C3)c1F [I-D-23, 2-(2-((2-fluoro-2'-methyl-[1,1'-biphenyl]-3-yl)methoxy)-7,8-dihydro-1,6-naphthyridin-6(5H)-yl)ethan-1-ol]
hPD-1/hPD-L1
  pIC50: 6.00 to 7.15

## Cc1c(-c2ccc3c(c2)CN(CC(N)=O)C3=O)cccc1-c1ccccc1F [I-A-8, 2-(5-(2'-Fluoro-2-methyl-[1,1'-biphenyl]-3-yl)-1-oxoisoindolin-2-yl)acetamide]
hPD-1/hPD-L1
  pIC50: 6.00 to 7.15

## Cc1c(-c2ccc3c(n2)CCN(CC(=O)O)C3)cccc1-c1ccccc1F [I-B-2, 2-(2-(2'-Fluoro-2-methyl-[1,1'-biphenyl]-3-yl)-7,8-dihydro-1,6-naphthyridin-6(5H)-yl)acetic acid]
hPD-1/hPD-L1
  pIC50: 7.72
  inhibitory activity of PD-1/PD-L1 protein-protein interaction compared with BMS-202: superior to that of the compound BMS-202

## Cc1c(COc2ccc3c(n2)CCN(CCO)C3)cccc1-c1ccccc1 [I-D-17, 2-(2-((2-methyl-[1,1'-biphenyl]-3-yl)methoxy)-7,8-dihydro-1,6-naphthyridin-6(5H)-yl)ethan-1-ol]
hPD-1/hPD-L1
  pIC50: 6.00 to 7.15

## Cc1c(COc2ccc3c(n2)N(C)CN(CC(=O)O)C3)cccc1-c1cccc(OCCCN2CC[C@@H](O)C2)c1C [I-E-4, (R)-2-(7-((3'-(3-(3-hydroxypyrrolidin-1-yl)propoxy)-2,2'-dimethyl-[1,1'-biphenyl]-3-yl)methoxy)-1-methyl-1,4-dihydropyrido[2,3-d]pyrimidin-3(2H)-yl)acetic acid]
hPD-1/hPD-L1
  pIC50: 7.23
  inhibitory activity of PD-1/PD-L1 protein-protein interaction compared with BMS-202: superior to that of the compound BMS-202

## OCCN1CCc2nc(OCc3cccc(-c4ccccc4)c3F)ccc2C1 [I-D-25, 2-(2-((2-fluoro-[1,1'-biphenyl]-3-yl)methoxy)-7,8-dihydro-1,6-naphthyridin-6(5H)-yl)ethan-1-ol]
hPD-1/hPD-L1
  pIC50: 6.00 to 7.15

Source: patent EP4556465A1, “NOVEL BICYCLIC PD-L1 INHIBITORS, PREPARATION METHODS THEREFOR AND MEDICINAL USES THEREOF” (priority 2022, dated 2024)
